Results: patent US20220347194A1, “METHODS AND COMPOSITIONS FOR TREATING PAIN AND OTHER EPH RECEPTOR-ASSOCIATED CONDITIONS” (THE BOARD OF REGENTS OF THE UNIVERSITY OF TEXAS SYSTEM, priority 2019, published 2022)

Key:
EphB2 kinase domain = molecular target: T1, EphB2 kinase domain (Homo sapiens, UniProt P29323); test: Radiometric protein kinase assay (33PanQinase Activity Assay), EphB2
T1 sequence (P29323 621-884 limits assumed): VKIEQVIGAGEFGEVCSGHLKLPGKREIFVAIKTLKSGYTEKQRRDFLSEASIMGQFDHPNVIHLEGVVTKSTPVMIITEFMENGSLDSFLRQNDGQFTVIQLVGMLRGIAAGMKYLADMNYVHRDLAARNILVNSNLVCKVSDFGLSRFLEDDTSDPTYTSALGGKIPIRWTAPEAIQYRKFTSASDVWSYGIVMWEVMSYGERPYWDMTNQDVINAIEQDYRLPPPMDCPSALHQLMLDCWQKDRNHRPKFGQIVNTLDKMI
Experimental: (§2) Kinase domains were produced by ProQinase using human cDNAs to express recombinant GST/His-fusion proteins that were purified by affinity chromatography and determined to be enzymatically active by phosphorylation of a Poly (Glu, Tyr) substrate. The FDA compounds were assayed in 10 concentrations in the range from 1×10^−4 M to 3×10^−9 M for their ability to effect kinase activities. The final DMSO concentration in the reaction cocktails was 1% in all cases. Kinase assays were performed in 96-well FlashPlates™ from PerkinElmer (Boston, Mass., USA) in a 50 μl reaction volume. The reaction cocktail was pipetted in four steps in the following order: 20 μl of assay buffer (standard buffer), 5 μl of ATP solution (in H2O), 5 μl of test compound (in 10% DMSO), and 20 μl enzyme/substrate mix. […] The reaction cocktails were incubated at 30° C. for 60 minutes. The reaction was stopped with 50 μl of 2% (v/v) H3PO4, plates were aspirated and washed two times with 200 μl 0.9% (w/v) NaCl. Incorporation of ^33Pi was determined with a microplate scintillation counter (Microbeta, Wallac). All assays were performed with a BeckmanCoulter/SAGIAN™ Core System. The median value of the counts in column 1 (n=8) of each assay plate was defined as “low control”. This value reflects unspecific binding of radioactivity to the plate in the absence of a protein kinase but in the presence of the substrate. […] The residual activity (in %) for each well of a particular plate was calculated by using the following formula: Res. Activity (%)=100×[(cpm of compound−low control)/(high control−low control)] […]
(§3) For each kinase, the median value of the cpm of three wells with complete reaction cocktails, but without kinase, was defined as “low control” (n=3). This value reflects unspecific binding of radioactivity to the plate in the absence of protein kinase but in the presence of the substrate. […] The residual activity (in %) for each well of each row of a particular plate was calculated by using the following formula: Res. Activity (%)=100×[(cpm of compound−low control)/(high control−low control)]. […]

EphB3 kinase domain = molecular target: T2, EphB3 kinase domain (Homo sapiens, UniProt P54753); test: Radiometric protein kinase assay (33PanQinase Activity Assay), EphB3
T2 sequence (P54753 633-896 limits assumed): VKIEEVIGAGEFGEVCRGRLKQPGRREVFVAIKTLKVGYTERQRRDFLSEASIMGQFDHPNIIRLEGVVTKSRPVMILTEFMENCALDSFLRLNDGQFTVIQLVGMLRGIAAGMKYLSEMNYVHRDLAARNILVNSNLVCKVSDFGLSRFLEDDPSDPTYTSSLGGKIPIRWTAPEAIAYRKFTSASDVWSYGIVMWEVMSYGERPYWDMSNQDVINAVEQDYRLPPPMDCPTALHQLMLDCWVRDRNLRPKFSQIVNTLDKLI
Experimental: (§4) Kinase domains were produced by ProQinase using human cDNAs to express recombinant GST/His-fusion proteins that were purified by affinity chromatography and determined to be enzymatically active by phosphorylation of a Poly (Glu, Tyr) substrate. The FDA compounds were assayed in 10 concentrations in the range from 1×10^−4 M to 3×10^−9 M for their ability to effect kinase activities. The final DMSO concentration in the reaction cocktails was 1% in all cases. Kinase assays were performed in 96-well FlashPlates™ from PerkinElmer (Boston, Mass., USA) in a 50 μl reaction volume. The reaction cocktail was pipetted in four steps in the following order: 20 μl of assay buffer (standard buffer), 5 μl of ATP solution (in H2O), 5 μl of test compound (in 10% DMSO), and 20 μl enzyme/substrate mix. […] The reaction cocktails were incubated at 30° C. for 60 minutes. The reaction was stopped with 50 μl of 2% (v/v) H3PO4, plates were aspirated and washed two times with 200 μl 0.9% (w/v) NaCl. Incorporation of ^33Pi was determined with a microplate scintillation counter (Microbeta, Wallac). All assays were performed with a BeckmanCoulter/SAGIAN™ Core System. The median value of the counts in column 1 (n=8) of each assay plate was defined as “low control”. This value reflects unspecific binding of radioactivity to the plate in the absence of a protein kinase but in the presence of the substrate. The median value of the counts in column 7 of each assay plate (n=8) was taken as the “high control”, i.e. full activity in the absence of any inhibitor. The difference between high and low control was taken as 100% activity. As part of the data evaluation the low control value from a particular plate was subtracted from the high control value as well as from all 80 “compound values” of the corresponding plate. The residual activity (in %) for each well of a particular plate was calculated by using the following formula: Res. Activity (%)=100×[(cpm of compound−low control)/(high control−low control)]
(§5) The fitting method used was a least-squares fit.
For each kinase, the median value of the cpm of three wells with complete reaction cocktails, but without kinase, was defined as “low control” (n=3). This value reflects unspecific binding of radioactivity to the plate in the absence of protein kinase but in the presence of the substrate. Additionally, for each kinase the median value of the cpm of three other wells with the complete reaction cocktail, but without any compound, was taken as the “high control”, i.e. full activity in the absence of any inhibitor (n=3). […] The residual activity (in %) for each well of each row of a particular plate was calculated by using the following formula: Res. Activity (%)=100×[(cpm of compound−low control)/(high control−low control)]. […]

[1] = tested on: Capsaicin Induced pain model; test: Capsaicin Induced pain model (Hargreaves and Von Frey tests); format: in vivo, CD1 mice; settings: capsaicin-injected paw vs controls; Demeclocycline 17 mg/kg/day, DC 7 mg/kg/day, MCD 5 mg/kg/day, p.o
Experimental: (§1) Animals. A total of 40 male outbred CD1 mice were obtained from Charles River Laboratories at 8 weeks of age. Mice were housed in the animal facility of UT southwestern Medical Center, with constant temperature (21-24° C.) and humidity (30-50%) with free access to standard animal feed and water. The room was kept on a 12/12 light/dark cycle, with white light (light cycle) on at 2400 hours and red lights (dark cycle) on at 1200 hours. All of the procedures were conducted with approval from the UT southwestern Medical Center Institutional Animal Care and Use Committee (IACUC Protocol No. 2017-102090). Ugo Basile® the original Plantar Test (Hargreaves Apparatus) was used for thermal stimulation, where infrared beam was adjusted to give an average paw withdrawal latency of about 10 s in wild type mice and cut-off time was set to 30 s to avoid tissue damage. Ugo Basile® Dynamic Plantar Aesthesiometer (DPA) for mechanical stimulation (Electronic Von Frey) were used for mechanical stimulation, where the force (grams) was set at 50 g to prevent tissue damage. Animals were placed in clear acrylic cubicles (22×16.5×14 cm) for at least one hour prior testing. The testing/recording was done every 5 minutes with no repetition for the same mouse. Blinded person(s) to the individual treatment assignments recorded true reflexes.
Capsaicin Induced pain model. […]

EphB1 kinase domain = molecular target: T3, EphB1 kinase domain (Homo sapiens, UniProt P54762); test: Radiometric protein kinase assay (33PanQinase Activity Assay), EphB1; settings: for inhibition of EphB1 kinase activity: concentrations up to 100 μM
T3 sequence (P54762 619-882 limits assumed): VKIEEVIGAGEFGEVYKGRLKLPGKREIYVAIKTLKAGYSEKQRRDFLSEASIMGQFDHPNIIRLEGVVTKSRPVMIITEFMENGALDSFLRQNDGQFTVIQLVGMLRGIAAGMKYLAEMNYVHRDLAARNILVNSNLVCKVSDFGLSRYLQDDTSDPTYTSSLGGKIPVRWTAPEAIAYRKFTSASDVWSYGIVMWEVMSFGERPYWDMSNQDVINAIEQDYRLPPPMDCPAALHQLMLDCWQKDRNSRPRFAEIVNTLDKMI
Experimental: as §4, §5
For each kinase, the median value of the cpm of three wells with complete reaction cocktails, but without kinase, was defined as “low control” (n=3). This value reflects unspecific binding of radioactivity to the plate in the absence of protein kinase but in the presence of the substrate. Additionally, for each kinase the median value of the cpm of three other wells with the complete reaction cocktail, but without any compound, was taken as the “high control”, i.e. full activity in the absence of any inhibitor (n=3). The difference between high and low control was taken as 100% activity for each kinase. As part of the data evaluation the low control of each row of a particular plate was subtracted from the high control value as well as from their corresponding “compound values”. The residual activity (in %) for each well of each row of a particular plate was calculated by using the following formula: Res. Activity (%)=100×[(cpm of compound−low control)/(high control−low control)]. […] The mathematical model used was “Sigmoidal response (variable slope)” with parameters “top” fixed at 100% and “bottom” at 0%.

[2] = tested on: Complete freund's adjuvant (CFA) Induced pain model; test: Complete freund's adjuvant (CFA) Induced pain model (Hargreaves and Von Frey tests); format: in vivo, CD1 mice
Experimental: as §1
Complete freund's adjuvant (CFA) Induced pain model. […] A baseline was for detected for the mice behavior towards thermal hyperalgesia using Hargreaves Test and mechanical allodynia using Von Frey Test. The drugs were administered via gavage for three consecutive days before CFA injection. On the morning of the experiment (6 hours before CFA injection), the last dose of drugs was administered. CFA was injected in the right paw, while the left paw remained un-injected as control. The testing involved two stimulus thermal hyperalgesia using Hargreaves Test and mechanical allodynia using Von Frey Test at Days 1, 2, 3, and 5.

[3] = tested on: Human glioblastoma (GBM) cells; test: Glioblastoma cell migration; format: cell-based; settings: 12.5, 25, 50, and 100 μM; after 24 hours
Experimental: Cell migration was tested after 24 hours.

EphB4 kinase domain = molecular target: T4, EphB4 kinase domain (Homo sapiens, UniProt P54760); test: Radiometric protein kinase assay (33PanQinase Activity Assay), EphB4
T4 sequence (P54760 615-899 limits assumed): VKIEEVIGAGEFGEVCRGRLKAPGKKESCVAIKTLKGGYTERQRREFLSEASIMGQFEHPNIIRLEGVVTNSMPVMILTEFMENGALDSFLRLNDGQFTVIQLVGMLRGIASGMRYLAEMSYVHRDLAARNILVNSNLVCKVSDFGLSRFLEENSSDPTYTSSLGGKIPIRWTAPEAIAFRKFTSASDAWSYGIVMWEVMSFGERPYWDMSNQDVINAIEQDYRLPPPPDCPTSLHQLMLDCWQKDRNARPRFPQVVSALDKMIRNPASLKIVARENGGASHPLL
Experimental: as §2, §3

[4] = tested at Days 1, 2, 3, and 5, P<0.001

SMILES | IC50 (EphB2 kinase domain) [µM] | IC50 (EphB3 kinase domain) [µM] | IC50 (EphB1 kinase domain) [µM] | IC50 (EphB4 kinase domain) [µM] | inhibition of EphB1 kinase activity (EphB1 kinase domain) | other results
CN(C)[C@@H]1C(O)=C(C(N)=O)C(=O)[C@@]2(O)C(O)=C3C(=O)c4c(O)ccc(Cl)c4[C@@H](O)[C@H]3C[C@@H]12 [Demeclocycline, demeclocycline] | 37 to 92 | 47 | 39 | 37 to 92 |  | influence on EphB3 catalytic activity (EphB3 kinase domain; low nanomolar ranges (biphasic)): slightly elevated activity; paw withdrawal latency, thermal stimulus (Hargreaves) [1]: prolonged the paw withdrawal latency; response to mechanical stimulus (von Frey) [1]: same behavior was observed; paw withdrawal latency, thermal stimulus (Hargreaves) ([2]; injected paw vs controls, p.o): prolonged the paw withdrawal latency; response to mechanical stimulus (von Frey) ([2]; injected paw vs controls, p.o): same behavior was observed; time until which significant improvement for mechanical (tactile) allodynia was shown [2, 4]: 1 days; time until which significant improvement in paw withdrawal latency for thermal hyperalgesia was shown [2, 4]: ≤ 2 days; glioblastoma cell migration [3]: inhibited glioblastoma cell migration
CN(C)[C@@H]1C(O)=C(C(N)=O)C(=O)[C@@]2(O)C(O)=C3C(=O)c4c(O)ccc(Cl)c4[C@@](C)(O)[C@H]3C[C@@H]12 [chlortetracycline] | 37 to 92 | 55 | 44 | 37 to 92 |  | 
NC(=O)C(c1ccccc1)(c1ccccc1)[C@@H]1CCN(CCc2ccc3c(c2)CCO3)C1 [darifenacin] |  |  |  |  | failed to inhibit | 
CN(C)c1ccc(O)c2c1C[C@H]1C[C@H]3[C@H](N(C)C)C(O)=C(C(N)=O)C(=O)[C@@]3(O)C(O)=C1C2=O [minocycline] | 37 to 92 | 92 | 56 | 37 to 92 |  | 
CCC(=O)NCC[C@@H]1CCc2ccc3c(c21)CCO3 [ramelteon] |  |  |  |  | failed to inhibit | 
